Results published in patent publication US9458110B2, “Phenylpyrazole derivatives as potent ROCK1 and ROCK2 inhibitors” (BRISTOL-MYERS SQUIBB COMPANY, priority 2013, dated 2016).

How the values were obtained:
ROCK1 = ROCK1 (Homo sapiens (Human), UniProt Q13464); assay: ROCK assay (Caliper LABCHIP peptide phosphorylation), ROCK1; format: biochemical; details: 5 μM ATP, 1.5 μM peptide substrate;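 further: Read-out is separation of phosphorylated from unphosphorylated peptide, with kinase activity inhibition computed at every concentration of a dose-response series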
ROCK2 = ROCK2 (Homo sapiens (Human), UniProt O75116); assay: ROCK assay (Caliper LABCHIP peptide phosphorylation), ROCK2; format: biochemical; details: 5 μM ATP, 1.5 μM peptide substrate;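 further: reaction stopped with EDTA, then phosphorylated and unphosphorylated peptide resolved by microfluidic electrophoresis, kinase inhibition computed at each compound concentration in dose-response series, DMSO under 2%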
Chain of ROCK2 (O75116 whole entry, species assumed): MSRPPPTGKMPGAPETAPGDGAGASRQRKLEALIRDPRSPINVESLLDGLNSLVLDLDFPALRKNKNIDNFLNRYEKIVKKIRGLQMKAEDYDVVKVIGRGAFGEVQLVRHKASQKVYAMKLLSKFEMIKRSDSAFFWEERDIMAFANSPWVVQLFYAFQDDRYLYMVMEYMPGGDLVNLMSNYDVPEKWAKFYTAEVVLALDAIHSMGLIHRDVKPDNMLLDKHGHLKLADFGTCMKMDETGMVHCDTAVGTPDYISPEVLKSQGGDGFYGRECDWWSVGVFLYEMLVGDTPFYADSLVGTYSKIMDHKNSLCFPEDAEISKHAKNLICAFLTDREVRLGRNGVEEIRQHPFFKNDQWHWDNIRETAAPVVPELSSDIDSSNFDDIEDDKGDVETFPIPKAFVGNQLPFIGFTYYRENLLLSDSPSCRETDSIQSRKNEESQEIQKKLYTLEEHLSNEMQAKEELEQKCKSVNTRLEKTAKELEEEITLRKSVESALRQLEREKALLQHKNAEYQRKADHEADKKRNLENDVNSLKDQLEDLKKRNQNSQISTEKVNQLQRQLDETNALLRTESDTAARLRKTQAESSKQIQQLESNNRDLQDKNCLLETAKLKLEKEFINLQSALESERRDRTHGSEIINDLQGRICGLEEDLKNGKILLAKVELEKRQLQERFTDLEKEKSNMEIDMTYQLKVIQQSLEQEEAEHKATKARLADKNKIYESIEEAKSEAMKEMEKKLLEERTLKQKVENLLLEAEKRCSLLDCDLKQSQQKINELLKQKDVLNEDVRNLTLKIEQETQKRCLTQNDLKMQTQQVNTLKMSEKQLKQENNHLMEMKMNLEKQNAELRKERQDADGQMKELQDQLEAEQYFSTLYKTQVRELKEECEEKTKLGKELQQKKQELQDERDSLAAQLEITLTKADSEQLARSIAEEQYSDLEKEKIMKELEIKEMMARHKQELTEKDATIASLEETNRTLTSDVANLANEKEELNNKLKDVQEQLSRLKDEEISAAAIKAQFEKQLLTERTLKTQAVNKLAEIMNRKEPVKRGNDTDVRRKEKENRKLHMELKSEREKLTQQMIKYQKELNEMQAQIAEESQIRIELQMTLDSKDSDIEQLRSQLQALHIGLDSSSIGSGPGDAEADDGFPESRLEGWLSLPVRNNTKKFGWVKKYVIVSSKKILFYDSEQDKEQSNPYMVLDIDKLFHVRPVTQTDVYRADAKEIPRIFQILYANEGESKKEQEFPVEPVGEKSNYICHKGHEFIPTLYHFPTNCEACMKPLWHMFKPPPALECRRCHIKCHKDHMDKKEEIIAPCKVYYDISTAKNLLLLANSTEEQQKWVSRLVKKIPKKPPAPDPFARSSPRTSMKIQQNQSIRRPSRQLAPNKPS

Chain of ROCK1 (Q13464 whole entry, species assumed): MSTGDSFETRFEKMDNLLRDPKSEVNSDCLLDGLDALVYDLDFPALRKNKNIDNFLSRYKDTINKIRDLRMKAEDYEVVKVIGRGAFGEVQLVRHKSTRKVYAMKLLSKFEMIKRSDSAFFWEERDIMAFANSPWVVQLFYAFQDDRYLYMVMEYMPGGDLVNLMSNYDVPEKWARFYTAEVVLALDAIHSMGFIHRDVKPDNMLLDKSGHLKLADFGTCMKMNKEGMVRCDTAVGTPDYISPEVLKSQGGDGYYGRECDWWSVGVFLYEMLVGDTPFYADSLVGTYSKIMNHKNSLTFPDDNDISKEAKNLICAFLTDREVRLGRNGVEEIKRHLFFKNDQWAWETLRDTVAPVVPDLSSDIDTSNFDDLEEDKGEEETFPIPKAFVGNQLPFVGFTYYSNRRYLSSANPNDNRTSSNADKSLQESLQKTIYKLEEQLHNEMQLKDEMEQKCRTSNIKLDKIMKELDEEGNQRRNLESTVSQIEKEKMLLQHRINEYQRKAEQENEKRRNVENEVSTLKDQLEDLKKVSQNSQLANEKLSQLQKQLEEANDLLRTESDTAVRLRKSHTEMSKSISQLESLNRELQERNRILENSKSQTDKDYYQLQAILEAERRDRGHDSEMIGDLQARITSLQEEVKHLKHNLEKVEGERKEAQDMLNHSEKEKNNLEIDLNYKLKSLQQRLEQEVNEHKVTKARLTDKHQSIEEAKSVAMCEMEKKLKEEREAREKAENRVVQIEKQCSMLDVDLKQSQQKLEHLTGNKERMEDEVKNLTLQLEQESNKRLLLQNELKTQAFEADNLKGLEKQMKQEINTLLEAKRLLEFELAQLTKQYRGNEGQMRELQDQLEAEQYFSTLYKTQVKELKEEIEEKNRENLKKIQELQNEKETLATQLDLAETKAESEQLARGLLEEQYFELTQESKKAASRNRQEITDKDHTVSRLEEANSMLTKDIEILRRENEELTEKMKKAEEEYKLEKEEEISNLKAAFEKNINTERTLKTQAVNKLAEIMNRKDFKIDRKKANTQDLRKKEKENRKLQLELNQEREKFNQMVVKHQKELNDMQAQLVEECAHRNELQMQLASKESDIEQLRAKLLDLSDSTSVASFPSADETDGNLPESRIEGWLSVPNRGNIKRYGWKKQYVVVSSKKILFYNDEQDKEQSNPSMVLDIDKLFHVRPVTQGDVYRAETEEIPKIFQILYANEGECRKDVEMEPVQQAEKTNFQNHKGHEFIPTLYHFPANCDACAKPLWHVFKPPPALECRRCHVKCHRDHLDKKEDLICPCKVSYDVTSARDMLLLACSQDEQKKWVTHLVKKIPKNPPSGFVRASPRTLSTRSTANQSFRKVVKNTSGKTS

IC50 (ROCK1) [nM] | IC50 (ROCK2) [nM] | Structure (SMILES)
42 | 12.7 | COc1cc(C(=O)NCC(O)c2cccc(O)c2)ccc1-c1cn[nH]c1 (stereo not drawn) [Example 131, N-[2-hydroxy-2-(3-hydroxyphenyl)ethyl]-3-methoxy-4-(1H-pyrazol-4-yl)benzamide]
17.7 | 8.99 | COc1cc(C(=O)NC(C)c2ccccc2Cl)ccc1-c1cn[nH]c1 (racemic) [Example 4, (+/−)-N-(1-(2-chlorophenyl)ethyl)-3-methoxy-4-(1H-pyrazol-4-yl) benzamide]
1510 | 627 | COc1ccc(F)c(C(C)NC(=O)c2ccc(-c3c[nH]nc3C)cc2OC)c1 (stereo not drawn) [Example 152, N-[1-(2-fluoro-5-methoxyphenyl)ethyl]-2-methoxy-4-(3-methyl-1H-pyrazol-4-yl)benzamide]
24.9 | 9.44 | COc1cc(C(=O)NCc2ccc3sccc3c2)ccc1-c1cn[nH]c1 [Example 104, N-(1-benzothiophen-5-ylmethyl)-3-methoxy-4-(1H-pyrazol-4-yl)benzamide]
275 | 74.3 | CC(O)c1cc(C(=O)NCc2c(F)cccc2Cl)ccc1-c1cn[nH]c1 (stereo not drawn) [Example 289, N-[(2-chloro-6-fluorophenyl)methyl]-3-(1-hydroxyethyl)-4-(1H-pyrazol-4-yl)benzamide]
6.68 | 2.32 | COc1cc(C(=O)NC(C)c2cccc3ccccc23)ccc1-c1cn[nH]c1 (stereo in doubt) [Example 172, 3-methoxy-N-[(1R)-1-(naphthalen-1-yl)ethyl]-4-(1H-pyrazol-4-yl)benzamide]
174 | 15.2 | COc1cc(-c2cn[nH]c2)ccc1C(=O)NC(CCN(C)C)c1ccccc1 (stereo not drawn) [Example 208, N-[3-(dimethylamino)-1-phenylpropyl]-2-methoxy-4-(1H-pyrazol-4-yl)benzamide]
156 | 28.3 | COc1cc(C(=O)NC(C)c2cccc(CN3CCN(C)CC3)c2)ccc1-c1cn[nH]c1 (racemic) [Example 81, (+/−)-3-methoxy-N-(1-(3-((4-methylpiperazin-1-yl)methyl)phenyl)ethyl)-4-(1H-pyrazol-4-yl)benzamide]
110 | 53.3 | CC(NC(=O)c1ccc(-c2cn[nH]c2)c(C(F)F)c1)c1ccccc1F (racemic) [Example 299, 3-(Difluoromethyl)-N-(1-(2-fluorophenyl)ethyl)-4-(1H-pyrazol-4-yl)benzamide]
147 | 77.1 | COc1cc(C(=O)NC(CN2CCN(C)CC2)c2ccccc2)ccc1-c1cn[nH]c1 (stereo not drawn) [Example 13, 3-methoxy-N-(2-(4-methylpiperazin-1-yl)-1-phenylethyl)-4-(1H-pyrazol-4-yl)benzamide]
182 | 76.3 | COc1ccc(F)c(C(C)NC(=O)c2ccc(-c3cn[nH]c3)cc2OC)c1 (stereo not drawn) [Example 229, N-[1-(2-fluoro-5-methoxyphenyl)ethyl]-2-methoxy-4-(1H-pyrazol-4-yl)benzamide]
8.46 | 3.99 | COc1cc(C(=O)NCc2c(F)ccc(F)c2Cl)ccc1-c1cn[nH]c1 [Example 88, N-[(2-chloro-3,6-difluorophenyl)methyl]-3-methoxy-4-(1H-pyrazol-4-yl)benzamide]
42.3 | 12.3 | O=C(N[C@H](CO)c1c(F)cccc1F)c1ccc(-c2cn[nH]c2)c(Cl)c1 [Example 200, 3-chloro-N-[(1S)-1-(2,6-difluorophenyl)-2-hydroxyethyl]-4-(1H-pyrazol-4-yl)benzamide]
10.3 | 3.94 | COC[C@@H](NC(=O)c1ccc(-c2cn[nH]c2)c(OC)c1)c1ccccc1 [Example 157, 3-methoxy-N-[(1S)-2-methoxy-1-phenylethyl]-4-(1H-pyrazol-4-yl)benzamide]
11.3 | 6.2 | COc1cc(-c2cn[nH]c2)ccc1C(=O)NCc1ccccc1Cl [Example 53, N-(2-Chlorobenzyl)-2-methoxy-4-(1H-pyrazol-4-yl)benzamide]
> 2000 | 415 | COc1cccc([C@@H](C)NC(=O)c2ccc(-c3c(C)n[nH]c3C)c(C)c2)c1 [Example 153, 4-(3,5-dimethyl-1H-pyrazol-4-yl)-N-[(1R)-1-(3-methoxyphenyl)ethyl]-3-methylbenzamide]
45.7 | 33.7 | Cc1cc(C(=O)N[C@H](CC(=O)O)c2ccccc2)ccc1-c1cn[nH]c1 [Example 251, (3R)-3-{[3-Methyl-4-(1H-pyrazol-4-yl)phenyl]formamido}-3-phenylpropanoic acid]
16.9 | 11.6 | Cc1cc(C(=O)NCc2ccc(F)cc2Cl)ccc1-c1cn[nH]c1 [Example 149, N-[(2-chloro-4-fluorophenyl)methyl]-3-methyl-4-(1H-pyrazol-4-yl)benzamide]
7.19 | 2.31 | COc1cccc([C@@H](C)NC(=O)c2ccc(-c3cn[nH]c3)cc2OCCO)c1 [Example 315, 2-(2-hydroxyethoxy)-N-[(1R)-1-(3-methoxyphenyl)ethyl]-4-(1H-pyrazol-4-yl)benzamide]
585 | 201 | COc1cc(-c2cn[nH]c2)ccc1C(=O)NC(c1ccccc1F)C(C)(C)O (stereo not drawn) [Example 219, N-[1-(2-fluorophenyl)-2-hydroxy-2-methylpropyl]-2-methoxy-4-(1H-pyrazol-4-yl)benzamide]
63.8 | 43.5 | COc1cccc([C@@H](C)NC(=O)c2ccc(-c3c[nH]nc3CO)cc2OC)c1 [Example 306, (R)-4-(3-(Hydroxymethyl)-1H-pyrazol-4-yl)-2-methoxy-N-(1-(3-methoxyphenyl)ethyl)benzamide]
155 | 1350 | COc1ccccc1CCNC(=O)c1ccc(-c2cn[nH]c2)c(OC)c1 [Example 126, 3-methoxy-N-[2-(2-methoxyphenyl)ethyl]-4-(1H-pyrazol-4-yl)benzamide]
0.43 | 0.19 | COc1cc(C(=O)NCc2cccc(C(=O)NC3CCN(C)CC3)c2)ccc1-c1cn[nH]c1 [Example 248, 3-methoxy-N-({3-[(1-methylpiperidin-4-yl)carbamoyl]phenyl}methyl)-4-(1H-pyrazol-4-yl)benzamide]
2.26 | 1.29 | CCNC[C@@H](NC(=O)c1ccc(-c2cn[nH]c2)c(OC)c1)c1c(F)cccc1F [Example 265, N-[(1S)-1-(2,6-Difluorophenyl)-2-(ethylamino)ethyl]-3-methoxy-4-(1H-pyrazol-4-yl)benzamide]
34 | 33.1 | COc1cc(C(=O)NC[C@@H](C)c2ccccc2)ccc1-c1cn[nH]c1 [Example 129, 3-methoxy-N-[(2S)-2-phenylpropyl]-4-(1H-pyrazol-4-yl)benzamide]
1880 | 6510 | O=C(NCc1ccccc1)c1ccc(-c2cn[nH]c2)cc1CCO [Example 211, N-benzyl-2-(2-hydroxyethyl)-4-(1H-pyrazol-4-yl) benzamide]
43.3 | 8.87 | COc1cccc([C@@H](C)NC(=O)c2ccc(-c3cn[nH]c3)cc2F)c1 [Example 62, (R)-2-Fluoro-N-(1-(3-methoxyphenyl)ethyl)-4-(1H-pyrazol-4-yl)benzamide]
